From patent US9895338B1, “Cobalt-polypyridyl complex for treatment of cancer, a pharmaceutical composition and a kit comprising it” (Macau University of Science and Technology, priority 2016, dated 2018)

Columns and labels:
[1] = test system: cisplatin-sensitive SGC-7901 gastric cancer cells; assay: MTT cytotoxicity, cisplatin-sensitive SGC-7901; type: cell-based; details: SGC-7901, MTT, 72 h
Protocol: (§1) All prepared cobalt-polypyridyl complexes were dissolved in DMSO at a final concentration of 50 mmol/L and stored at −20° C. before use. Cytotoxicity was assessed by using the 3-(4,5-dimethylthiazol-2-yl)-2,5-diphenyltetrazolium bromide (MTT) (5.0 mg/ml) assay as previously described (Wong, V. K. et al., Cell Death Dis, 2013, 4, e720). Briefly, 4×10^3 cells per well were seeded in 96-well plates before drug treatments. After overnight culture, the cells were then exposed to different concentrations of selected compounds (0.039-100 μmol/L) for 72 h. Cells without drug treatment were used as control. Subsequently, MTT (10 μL) solution was added to each well and incubated at 37° C. for 4 h followed by the addition of 100 μL solubilization buffer (10% SDS in 0.01 mol/L HCl) and overnight incubation. A570 nm was then determined in each well on the next day. The percentage of cell viability was calculated using the following formula: Cell viability (%)=Atreated/Acontrol×100. Data were obtained from three independent experiments.

H1975 (lung cancer) = assay: MTT cytotoxicity assay, H1975; type: cell-based; details: 72 h
Protocol: as §1, with “experiments. Cells include HeLa cells (cervical cancer), MCF-7 (breast cancer), H1299, H1975, A549 and LLC-1 (lung cancer), HepG2 and Hep3B (liver cancer) and LO2 (normal human hepatocytes).” for “experiments.”

[2] = test system: HeLa cells (cervical cancer); assay: MTT cytotoxicity assay, HeLa; type: cell-based; details: 72 h
Protocol: as §1, with “experiments. Cells include HeLa cells (cervical cancer), MCF-7 (breast cancer), H1299, H1975, A549 and LLC-1 (lung cancer), HepG2 and Hep3B (liver cancer) and LO2 (normal human hepatocytes).” for “experiments.”

[3] = test system: OV2008/C13 cervical cancer cells; assay: MTT cytotoxicity, OV2008/C13 (cisplatin-resistant); type: cell-based; details: for IC50: OV2008/C13, MTT, 72 h; for Resistant Factor: OV2008/C13 over OV2008
Protocol: as §1
(§2) Cisplatin-sensitive or -resistant A2780, OV2008 and C13 cancer cells were provided by Prof. Benjamin Tsang (Department of Obstetrics and Gynecology and Department of Cellular and Molecular Medicine, University of Ottawa, Canada). HCT116 p53^+/+ and p53^−/− isogenic human colon cancer cells were provided by Professor Bert Vogelstein (Ludwig Center at Johns Hopkins, Howard Hughes Medical Institute, USA). All media were supplemented with 10% fetal bovine serum and the antibiotics penicillin (50 U/ml) and streptomycin (50 μg/ml; Invitrogen, Paisley, Scotland, UK). All cell cultures were incubated at 37° C. in a 5% humidified CO2 incubator.

[4] = test system: Taxol-sensitive A549 cancer cells; assay: MTT cytotoxicity, taxol-sensitive A549; type: cell-based; details: 72 h
Protocol: as §1

MCF-7 (breast cancer) = assay: MTT cytotoxicity assay, MCF-7; type: cell-based; details: MCF-7, MTT, 72 h
Protocol: as §1, with “experiments. Cells include HeLa cells (cervical cancer), MCF-7 (breast cancer), H1299, H1975, A549 and LLC-1 (lung cancer), HepG2 and Hep3B (liver cancer) and LO2 (normal human hepatocytes).” for “experiments.”

LLC-1 (lung cancer) = assay: MTT cytotoxicity assay, LLC-1; type: cell-based; details: LLC-1, MTT, 72 h
Protocol: as §1, with “experiments. Cells include HeLa cells (cervical cancer), MCF-7 (breast cancer), H1299, H1975, A549 and LLC-1 (lung cancer), HepG2 and Hep3B (liver cancer) and LO2 (normal human hepatocytes).” for “experiments.”

[5] = test system: HCT116 p53^−/− colon cancer cells; assay: MTT cytotoxicity, HCT116 p53-/-; type: cell-based, human; details: for Resistant Factor: HCT116 p53^−/− over HCT116 p53^+/+; for IC50: MTT, 72 h
Protocol: as §1, §2

[6] = test system: cisplatin-resistant A2780 ovarian cancer cells; assay: MTT cytotoxicity, cisplatin-resistant A2780; type: cell-based; details: for IC50: A2780, MTT, 72 h; for Resistant Factor: A2780, cisplatin-resistant over cisplatin-sensitive
Protocol: as §1, §2

[7] = test system: cisplatin-resistant SGC-7901 gastric cancer cells; assay: MTT cytotoxicity, cisplatin-resistant SGC-7901; type: cell-based; details: for IC50: SGC-7901, MTT, 72 h; for Resistant Factor: SGC-7901, cisplatin-resistant over cisplatin-sensitive
Protocol: as §1
(§3) All cells were obtained from the American Type Culture Collection (Rockville, Md., USA) unless otherwise specified. Immortalized wild-type and Atg7-deficient mouse embryonic fibroblasts (MEFs) were provided by Professor Masaaki Komatsu (Juntendo University, School of Medicine, Japan). Taxol-resistant types of A549, MCF-7, HCT-8 cancer cells, cisplatin-resistant SGC7901 cancer cells were purchased from KeyGEN BioTECH, China.

[8] = test system: HCT116 p53^+/+ colon cancer cells; assay: MTT cytotoxicity, HCT116 p53+/+; type: cell-based, human; details: 72 h
Protocol: as §1, §2

[9] = test system: Taxol-sensitive HCT8 cancer cells; assay: MTT cytotoxicity, taxol-sensitive HCT8; type: cell-based; details: 72 h
Protocol: as §1

A549 (lung cancer) = assay: MTT cytotoxicity assay, A549; type: cell-based; details: 72 h
Protocol: as §1, with “experiments. Cells include HeLa cells (cervical cancer), MCF-7 (breast cancer), H1299, H1975, A549 and LLC-1 (lung cancer), HepG2 and Hep3B (liver cancer) and LO2 (normal human hepatocytes).” for “experiments.”

[10] = test system: cisplatin-sensitive A2780 ovarian cancer cells; assay: MTT cytotoxicity, cisplatin-sensitive A2780; type: cell-based; details: 72 h
Protocol: as §1, §2

[11] = test system: Taxol-resistant HCT8 cancer cells; assay: MTT cytotoxicity, taxol-resistant HCT8; type: cell-based; details: for IC50: HCT8, MTT, 72 h; for Resistant Factor: HCT8, IC50 taxol-resistant over IC50 taxol-sensitive
Protocol: as §1, §3

[12] = test system: Taxol-resistant A549 cancer cells; assay: MTT cytotoxicity, taxol-resistant A549; type: cell-based; details: for IC50: A549, MTT, 72 h; for Resistant Factor: A549, IC50 taxol-resistant over IC50 taxol-sensitive
Protocol: as §1, §3

[13] = test system: Taxol-sensitive MCF-7 cancer cells; assay: MTT cytotoxicity, taxol-sensitive MCF-7; type: cell-based; details: MCF-7, MTT, 72 h
Protocol: as §1

[14] = test system: OV2008 cervical cancer cells; assay: MTT cytotoxicity, OV2008 (cisplatin-sensitive); type: cell-based; details: 72 h
Protocol: as §1, §2

H1299 (lung cancer) = assay: MTT cytotoxicity assay, H1299; type: cell-based, human; details: 72 h
Protocol: as §1, with “experiments. Cells include HeLa cells (cervical cancer), MCF-7 (breast cancer), H1299, H1975, A549 and LLC-1 (lung cancer), HepG2 and Hep3B (liver cancer) and LO2 (normal human hepatocytes).” for “experiments.”

[15] = test system: Taxol-resistant MCF-7 cancer cells; assay: MTT cytotoxicity, taxol-resistant MCF-7; type: cell-based; details: for IC50: MCF-7, MTT, 72 h; for Resistant Factor: MCF-7, IC50 taxol-resistant over IC50 taxol-sensitive
Protocol: as §1, §3

Hep 3B (liver cancer) = assay: MTT cytotoxicity assay, Hep3B; type: cell-based; details: 72 h
Protocol: as §1, with “experiments. Cells include HeLa cells (cervical cancer), MCF-7 (breast cancer), H1299, H1975, A549 and LLC-1 (lung cancer), HepG2 and Hep3B (liver cancer) and LO2 (normal human hepatocytes).” for “experiments.”

HepG2 (liver cancer) = assay: MTT cytotoxicity assay, HepG2; type: cell-based; details: 72 h
Protocol: as §1, with “experiments. Cells include HeLa cells (cervical cancer), MCF-7 (breast cancer), H1299, H1975, A549 and LLC-1 (lung cancer), HepG2 and Hep3B (liver cancer) and LO2 (normal human hepatocytes).” for “experiments.”

[16] = test system: LO2 (normal human hepatocytes); assay: MTT cytotoxicity assay, LO2; type: cell-based; details: 72 h
Protocol: as §1, with “experiments. Cells include HeLa cells (cervical cancer), MCF-7 (breast cancer), H1299, H1975, A549 and LLC-1 (lung cancer), HepG2 and Hep3B (liver cancer) and LO2 (normal human hepatocytes).” for “experiments.”

[17] = test system: cancer cells from different origins; assay: MTT cytotoxicity assay, summary over cancer cell lines; type: cell-based; details: range over the cancer cell lines of Table 1; read-out: mean IC50 values ranging (anti-cancer potency)
Protocol: as §1, with “experiments. Cells include HeLa cells (cervical cancer), MCF-7 (breast cancer), H1299, H1975, A549 and LLC-1 (lung cancer), HepG2 and Hep3B (liver cancer) and LO2 (normal human hepatocytes).” for “experiments.”
By contrast, the cytotoxicity was lower in LO2 normal human hepatocytes. […]

| Compound | IC50 [1] | IC50 (H1975 (lung cancer)) | IC50 [2] | Resistant Factor [3] | IC50 (MCF-7 (breast cancer)) | IC50 (LLC-1 (lung cancer)) | IC50 [6] | Resistant Factor [6] | IC50 [7] | Resistant Factor [7] | IC50 [9] | IC50 (A549 (lung cancer)) | IC50 [10] | IC50 [11] | Resistant Factor [11] | IC50 [13] | IC50 [14] | IC50 (H1299 (lung cancer)) | IC50 [15] | Resistant Factor [15] | also measured |
| --- | --- | --- | --- | --- | --- | --- | --- | --- | --- | --- | --- | --- | --- | --- | --- | --- | --- | --- | --- | --- | --- |
| F[P-](F)(F)(F)(F)F.F[P-](F)(F)(F)(F)F.F[P-](F)(F)(F)(F)F.[Co+3].c1ccc(-c2ccccn2)nc1.c1ccc(-c2ccccn2)nc1.c1ccc(-c2ccccn2)nc1 [complex (VI), [Co^III(N^N)3](PF6)3] | 41.1 µM | 21 µM | 35.9 µM | 0.88 | 10.1 µM | 29.2 µM | 54.1 µM | 0.98 | 41.7 µM | 1.01 | 18.5 µM | 37.2 µM | 55 µM | 10.2 µM | 0.55 | 8.02 µM | 42.5 µM | 14.9 µM | 5.01 µM | 0.62 | IC50 [3]: 37.4 µM; IC50 [4]: 51.7 µM; Resistant Factor [5]: 1.00; IC50 [5]: 45 µM; IC50 [8]: 45.1 µM; IC50 [12]: 11.1 µM; Resistant Factor [12]: 0.21; IC50 (Hep 3B (liver cancer)): 13.8 µM; IC50 (HepG2 (liver cancer)): 22.7 µM; IC50 [16]: 43.7 µM |
| COc1ccnc(-c2cc(OC)ccn2)c1.COc1ccnc(-c2cc(OC)ccn2)c1.COc1ccnc(-c2cc(OC)ccn2)c1.F[P-](F)(F)(F)(F)F.F[P-](F)(F)(F)(F)F.F[P-](F)(F)(F)(F)F.[Co+3] [complex (VII), [Co^III(4,4′-(OMe)2-Bpy)3](PF6)3] | 21.6 µM | 9.31 µM | 12.8 µM | 1.45 | 10.8 µM | 8.71 µM | 27 µM | 1.13 | 20.7 µM | 0.96 | 4.3 µM | 18.6 µM | 24 µM | 1.04 µM | 0.24 | 9.45 µM | 14 µM | 8.71 µM | 6.28 µM | 0.66 | IC50 [3]: 20.3 µM; IC50 [4]: 15 µM; Resistant Factor [5]: 0.53; IC50 [5]: 41.3 µM; IC50 [8]: 77.8 µM; IC50 [12]: 2.85 µM; Resistant Factor [12]: 0.19; IC50 (Hep 3B (liver cancer)): 5.33 µM; IC50 (HepG2 (liver cancer)): 15.4 µM; IC50 [16]: 20.6 µM |
| CCCCCCCCCc1ccnc(-c2cc(CCCCCCCCC)ccn2)c1.CCCCCCCCCc1ccnc(-c2cc(CCCCCCCCC)ccn2)c1.CCCCCCCCCc1ccnc(-c2cc(CCCCCCCCC)ccn2)c1.F[P-](F)(F)(F)(F)F.F[P-](F)(F)(F)(F)F.F[P-](F)(F)(F)(F)F.[Co+3] [complex (VIII), [Co^III(4,4′-(C9H19)2-Bpy)3](PF6)3] | 36.3 µM | 24.2 µM | 21.3 µM | 1.87 | 37.4 µM | 10.4 µM | 29.1 µM | 0.96 | 35.9 µM | 0.99 | 56.4 µM | 82.8 µM | 30.2 µM | 41.1 µM | 0.73 | 28.5 µM | 49.4 µM | 26.7 µM | 11.1 µM | 0.39 | IC50 [17]: 10.4 to 82.8 µM; IC50 (Hep 3B (liver cancer)): 54.1 µM; IC50 (HepG2 (liver cancer)): 26 µM; IC50 [16]: 40.2 µM |
